This is an account of results in US10730863B2, “Bridged bicyclic compounds as farnesoid X receptor modulators” (BRISTOL-MYERS SQUIBB COMPANY, priority 2017, dated 2020).

For orientation: EC50 means the concentration giving half of the maximal effect. Higher therefore signals lower potency in that assay.

For this test, the target named is FXR (Homo sapiens (Human), UniProt Q96RI1). As to the kind of experiment: FXR EC50 (FXR agonist activity reported with each example). Format: cell-based.
Chain of FXR (Q96RI1 262-486): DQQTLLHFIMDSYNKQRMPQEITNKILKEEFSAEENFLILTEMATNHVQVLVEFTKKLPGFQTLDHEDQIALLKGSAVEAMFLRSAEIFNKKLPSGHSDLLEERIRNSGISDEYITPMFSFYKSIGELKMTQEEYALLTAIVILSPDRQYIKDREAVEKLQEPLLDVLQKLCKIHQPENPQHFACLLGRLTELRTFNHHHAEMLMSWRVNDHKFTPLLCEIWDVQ
Regarding `COc1cc(C(=O)O)nc2ccc(OCC34CCC(/C=C/c5c(-c6c(Cl)cncc6Cl)noc5C5CC5)(CC3)CC4)cc12` [Example 508, (E)-6-((4-(2-(5-cyclopropyl-3-(3,5-dichloropyridin-4-yl)isoxazol-4-yl)vinyl)bicyclo[2.2.2]octan-1-yl)methoxy)-4-methoxyquinoline-2-carboxylic acid], a half-maximal effect (EC50) was put at 100 nM.
Then `Cc1nc(C23CCC(/C=C/c4c(-c5c(Cl)cncc5Cl)noc4C4CC4)(CC2)CC3)sc1C(=O)O` [Example 509, (E)-2-(4-(2-(5-cyclopropyl-3-(3,5-dichloropyridin-4-yl)isoxazol-4-yl)vinyl)bicyclo[2.2.2]octan-1-yl)-4-methylthiazole-5-carboxylic acid], with 40 nM.
Molecule `O=C(O)c1csc(C23CCC(/C=C/c4c(-c5c(Cl)cncc5Cl)noc4C4CC4)(CC2)CC3)n1` [Example 510, (E)-2-(4-(2-(5-cyclopropyl-3-(3,5-dichloropyridin-4-yl)isoxazol-4-yl)vinyl)bicyclo[2.2.2]octan-1-yl)thiazole-4-carboxylic acid] yielded an EC50 of 410 nM.
Then `O=C(O)c1cccc(C23CCC(COCc4c(-c5c(Cl)cncc5Cl)noc4C4CC4)(CC2)CO3)c1` [Example 511, 3-(4-(((5-cyclopropyl-3-(3,5-dichloropyridin-4-yl)isoxazol-4-yl)methoxy)methyl)-2-oxabicyclo[2.2.2]octan-1-yl)benzoic acid], with 2900 nM; and `O=C(O)c1c(F)ccc2nc(C34CCC(OCc5c(-c6c(Cl)cncc6Cl)noc5C5CC5)(CC3)CC4)sc12` [Example 512, 2-(4-((5-cyclopropyl-3-(3,5-dichloropyridin-4-yl)isoxazol-4-yl)methoxy)bicyclo[2.2.2]octan-1-yl)-6-fluorobenzo[d]thiazole-7-carboxylic acid], with 43 nM; and `O=C(O)c1cccc(-c2noc(C34C5C6C3C3C4C5C63COCc3c(-c4c(Cl)cccc4Cl)noc3C3CC3)n2)c1` (centres unmarked) [Example 513, 3-(5-(4-(((5-cyclopropyl-3-(2,6-dichlorophenyl)isoxazol-4-yl)methoxy)methyl)cuban-1-yl)-1,2,4-oxadiazol-3-yl)benzoic acid], with 960 nM.
Turning to `O=C(O)c1cccc(-c2noc(C34CC(COCc5c(-c6c(Cl)cccc6Cl)noc5C5CC5)(C3)C4)n2)c1` [Example 514, 3-(5-(3-(((5-cyclopropyl-3-(2,6-dichlorophenyl)isoxazol-4-yl)methoxy)methyl)bicyclo[1.1.1]pentan-1-yl)-1,2,4-oxadiazol-3-yl)benzoic acid], the EC50 was 1700 nM.
Regarding `O=C(O)c1ccc2cc(CCC34CCC(OCc5c(-c6c(Cl)cncc6Cl)noc5C5CC5)(CC3)CC4)ccc2n1` [Example 515, 6-(2-(4-((5-cyclopropyl-3-(3,5-dichloropyridin-4-yl)isoxazol-4-yl)methoxy)bicyclo[2.2.2]octan-1-yl)ethyl)quinoline-2-carboxylicacid], a half-maximal response (EC50) required 87 nM.
Then `O=C(O)Cc1ccc(/C=C/C23CCC(OCc4c(-c5c(Cl)cncc5Cl)noc4C4CC4)(CC2)CC3)cc1` [Example 516, (E)-2-(4-(2-(4-((5-cyclopropyl-3-(3,5-dichloropyridin-4-yl)isoxazol-4-yl)methoxy)bicyclo[2.2.2]octan-1-yl)vinyl)phenyl)acetic acid], with 173 nM; and `COc1nc(C(=O)O)cc2ccc(/C=C/C34CCC(OCc5c(-c6c(Cl)cncc6Cl)noc5C5CC5)(CC3)CC4)cc12` [Example 517, (E)-7-(2-(4-((5-cyclopropyl-3-(3,5-dichloropyridin-4-yl)isoxazol-4-yl)methoxy)bicyclo[2.2.2]octan-1-yl)vinyl)-1-methoxyisoquinoline-3-carboxylic acid], with 42 nM.
Then `CC(C)Oc1nc(C(=O)O)cc2ccc(/C=C/C34CCC(OCc5c(-c6c(Cl)cncc6Cl)noc5C5CC5)(CC3)CC4)cc12` [Example 518, (E)-7-(2-(4-((5-cyclopropyl-3-(3,5-dichloropyridin-4-yl)isoxazol-4-yl)methoxy)bicyclo[2.2.2]octan-1-yl)vinyl)-1-isopropoxyisoquinoline-3-carboxylic acid], with 62 nM.
